Experimental data taken from patent US20090240027A1, “INTERMEDIATES FOR MACROCYCLIC COMPOUNDS” (Tranzyme Pharma Inc., priority 2003, published 2009).

Molecular target: human motilin receptor (Homo sapiens, UniProt O43193)
Experiment: Competitive radioligand binding assay (Method B1)
Design: purchased PerkinElmer 6110544; host or cells: CHO cells, stably transfected (membranes)
Conditions: Radioligand competitive binding assay, Method B1; values reported as ranges; read-out: Ki (binding activity)
Method: Competitive Radioligand Binding Assay (Motilin Receptor)
• Membranes were prepared from CHO cells stably transfected with the human motilin receptor and utilized at a quantity of 1.5 μg/assay point.
Final Test Concentrations (N=11) for Compounds:
Compounds were provided frozen on dry ice at a stock concentration of 10 mM diluted in 100% DMSO and stored at −20° C. until the day of testing. On the test day, compounds were allowed to thaw at room temperature and than diluted in assay buffer according to the desired test concentrations. Under these conditions, the maximum final DMSO concentration in the assay was 0.5%.
Plates are sealed with TopSeal-A, vortexed gently and incubated at room temperature for 2 hours. The reaction is arrested by filtering samples through pre-soaked (0.3% polyethyleneimine, 2 h) Multiscreen Harvest plates using a Tomtec® Harvester (Tomtec, Hamden, Conn.)), washed 9 times with 500 μL of cold 50 mM Tris-HCl (pH 7.4), and than plates are air-dried in a fumehood for 30 minutes. A bottom seal is applied to the plates prior to the addition of 25 μL of MicroScint-0™ to each well.
Data are analyzed by GraphPad™ Prism (GraphPad Software, San Diego, Calif.) using a variable slope non-linear regression analysis.
where total and non-specific binding represent the cpm obtained in the absence or presence of 1 μM motilin, respectively.

human motilin receptor, sequence (O43193 whole entry): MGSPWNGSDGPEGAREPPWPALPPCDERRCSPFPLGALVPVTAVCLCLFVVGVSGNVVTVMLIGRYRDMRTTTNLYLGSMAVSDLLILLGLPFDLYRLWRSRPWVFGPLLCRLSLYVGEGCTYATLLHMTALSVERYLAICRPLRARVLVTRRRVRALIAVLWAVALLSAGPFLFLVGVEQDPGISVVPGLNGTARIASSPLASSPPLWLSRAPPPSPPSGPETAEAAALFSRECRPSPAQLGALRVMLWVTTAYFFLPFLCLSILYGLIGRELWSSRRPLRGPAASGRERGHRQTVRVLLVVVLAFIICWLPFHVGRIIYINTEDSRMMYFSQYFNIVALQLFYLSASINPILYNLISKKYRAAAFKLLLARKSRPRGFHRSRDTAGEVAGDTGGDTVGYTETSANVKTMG

Row | Structure (SMILES) | Ki [nM]
1 | CCCC1NC(=O)C(C(C)C)NC(=O)C(Cc2ccc(O)cc2)NCCOc2cccnc2CCCNC1=O (stereo not drawn) [Compound 110] | 100 to 1000
2 | CCCC1NC(=O)C(C(C)C)NC(=O)C(Cc2ccccn2)NCCOc2ccccc2CCCNC1=O (stereo not drawn) [Compound 123] | 100 to 1000
3 | CCCC1NC(=O)C(C(C)C)NC(=O)C(Cc2ccncc2)NCCOc2ccccc2CCCNC1=O (stereo not drawn) [Compound 124] | 100 to 1000
4 | CCCC1NC(=O)C(C2CC2)NC(=O)C(Cc2ccc(O)cc2)NCCOc2ccccc2CCCNC1=O (stereo not drawn) [Compound 125] | 100 to 1000
5 | CCCC1NC(=O)C(C(C)C)NC(=O)C(Cc2c[nH]cn2)NCc2ccccc2Sc2ccccc2CNC1=O (stereo not drawn) [Compound 127] | 100 to 1000
6 | COc1ccc(C[C@H]2NCCOc3ccccc3CCCNC(=O)[C@H](CC(C)C)NC(=O)[C@@H](C(C)C)NC2=O)cc1 [Compound 128] | 100 to 1000
7 | CC(C)CC1NC(=O)C(C(C)C)NC(=O)C(Cc2cccs2)NCCOc2ccccc2CCCNC1=O (stereo not drawn) [Compound 130] | 100 to 1000
8 | CC(C)C[C@@H]1NC(=O)[C@@H](C(C)C)NC(=O)[C@@H](Cc2cccc(Cl)c2)NCCOc2ccccc2CCCNC1=O [Compound 131] | 1 to 100
9 | CC(C)C[C@@H]1NC(=O)[C@@H](C(C)C)NC(=O)[C@@H](Cc2ccc(Cl)cc2)NCCOc2ccccc2CCCNC1=O [Compound 132] | 1 to 100
10 | CC(C)C[C@@H]1NC(=O)[C@@H](C(C)C)NC(=O)[C@@H](Cc2ccc(F)cc2)NCCOc2ccccc2CCCNC1=O [Compound 133] | 1 to 100
11 | COc1ccc(CC2NCCOc3cccnc3CCCNC(=O)C(CC(C)C)NC(=O)C(C(C)C)NC2=O)cc1 (stereo not drawn) [Compound 135] | 100 to 1000
12 | CC(C)CC1NC(=O)C(C(C)C)NC(=O)C(Cc2cccc3ccccc23)NCCOc2cccnc2CCCNC1=O (stereo not drawn) [Compound 136] | 100 to 1000
13 | CC(C)CC1NC(=O)C(C(C)C)NC(=O)C(Cc2cccs2)NCCOc2cccnc2CCCNC1=O (stereo not drawn) [Compound 137] | 100 to 1000
14 | CC(C)CC1NC(=O)C(C(C)C)NC(=O)C(Cc2ccc(Cl)cc2)NCCOc2cccnc2CCCNC1=O (stereo not drawn) [Compound 139] | 100 to 1000
15 | CC(C)CC1NC(=O)C(C(C)C)NC(=O)C(Cc2ccc(F)cc2)NCCOc2cccnc2CCCNC1=O (stereo not drawn) [Compound 140] | 100 to 1000
16 | COc1ccc(C[C@H]2NCCOc3ccccc3CCCNC(=O)[C@H](CC3CC3)NC(=O)[C@@H](C(C)C)NC2=O)cc1 [Compound 141] | 1 to 100
17 | CC(C)[C@H]1NC(=O)[C@@H](Cc2ccc(Cl)cc2)NCCOc2ccccc2CCCNC(=O)[C@H](CC2CC2)NC1=O [Compound 145] | 1 to 100
18 | CC(C)C1NC(=O)C(Cc2ccc(Cl)cc2)NCCOc2cccnc2CCCNC(=O)C(CC2CC2)NC1=O (stereo not drawn) [Compound 150] | 100 to 1000
19 | COc1ccc(CC2NCCOc3ccccc3CCCNC(=O)C(CN)NC(=O)C(C(C)C)NC2=O)cc1 (stereo not drawn) [Compound 152] | 100 to 1000
20 | CC(C)C1NC(=O)C(Cc2cccc3ccccc23)NCCOc2ccccc2CCCNC(=O)C(CN)NC1=O (stereo not drawn) [Compound 153] | 100 to 1000

Row | Structure (SMILES) | Ki [nM]
21 | CC(C)C1NC(=O)C(Cc2cccs2)NCCOc2ccccc2CCCNC(=O)C(CN)NC1=O (stereo not drawn) [Compound 154] | 100 to 1000
22 | CC(C)[C@H]1NC(=O)[C@@H](Cc2cccc(Cl)c2)NCCOc2ccccc2CCCNC(=O)[C@H](CN)NC1=O [Compound 155] | 1 to 100
23 | CC(C)[C@H]1NC(=O)[C@@H](Cc2ccc(Cl)cc2)NCCOc2ccccc2CCCNC(=O)[C@H](CN)NC1=O [Compound 156] | 1 to 100
24 | CC(C)C1NC(=O)C(Cc2ccc(F)cc2)NCCOc2ccccc2CCCNC(=O)C(CN)NC1=O (stereo not drawn) [Compound 157] | 100 to 1000
25 | CC(C)[C@H]1NC(=O)[C@@H](Cc2cccc(Cl)c2)NCCOc2cccnc2CCCNC(=O)[C@H](CN)NC1=O [Compound 158] | 1 to 100
26 | CCCC1NC(=O)C(C(C)CC)NC(=O)C(Cc2ccc(O)cc2)NCCOc2ccccc2CCCNC1=O (stereo not drawn) [Compound 159] | 100 to 1000
27 | CCCC1NC(=O)C(C(C)CC)NC(=O)C(Cc2ccc(O)cc2)NCCOc2ccccc2CCCNC1=O (stereo not drawn) [Compound 160] | 100 to 1000
28 | CCCC1NC(=O)C(C(C)C)NC(=O)C(Cc2ccc(CN)cc2)NCCOc2ccccc2CCCNC1=O (stereo not drawn) [Compound 161] | 100 to 1000
29 | CCCC1NC(=O)C(C(C)C)NC(=O)C(Cc2ccccc2C)NCCOc2ccccc2CCCNC1=O (stereo not drawn) [Compound 162] | 100 to 1000
30 | CCC[C@@H]1NC(=O)[C@@H](C(C)C)NC(=O)[C@@H](Cc2cccc(C)c2)NCCOc2ccccc2CCCNC1=O [Compound 163] | 1 to 100
31 | CCC[C@@H]1NC(=O)[C@@H](C(C)C)NC(=O)[C@@H](Cc2ccc(C)cc2)NCCOc2ccccc2CCCNC1=O [Compound 164] | 100 to 1000
32 | CCC[C@@H]1NC(=O)[C@@H](C(C)C)NC(=O)[C@@H](Cc2cccc(OC)c2)NCCOc2ccccc2CCCNC1=O [Compound 165] | 1 to 100
33 | CCCC1NC(=O)C(C(C)C)NC(=O)C(Cc2ccccc2OC)NCCOc2ccccc2CCCNC1=O (stereo not drawn) [Compound 166] | 100 to 1000
34 | CCCC1NC(=O)C(C(C)C)NC(=O)CC(Cc2cccc(Cl)c2)NCCOc2ccccc2CCCNC1=O (stereo not drawn) [Compound 169] | 100 to 1000
35 | CCC[C@@H]1NC(=O)[C@@H](C(C)C)NC(=O)[C@@H](Cc2ccc(Cl)c(Cl)c2)NCCOc2ccccc2CCCNC1=O [Compound 170] | 1 to 100
36 | CCC[C@@H]1NC(=O)[C@@H](C(C)C)NC(=O)[C@@H](Cc2ccc(F)c(F)c2)NCCOc2ccccc2CCCNC1=O [Compound 171] | 1 to 100
37 | CCC[C@@H]1NC(=O)[C@@H](C(C)C)NC(=O)[C@@H](Cc2ccc(OC)c(OC)c2)NCCOc2ccccc2CCCNC1=O [Compound 172] | 1 to 100
38 | CCCC1NC(=O)C(C(C)C)NC(=O)C(Cc2ccc(O)cc2)NCCOc2ccccc2CCNC1=O (stereo not drawn) [Compound 177] | 100 to 1000
39 | COc1ccc(CC2NCCOc3ccccc3CCCNC(=O)C(CO)NC(=O)C(C(C)C)NC2=O)cc1 (stereo not drawn) [Compound 178] | 100 to 1000
40 | CC(C)C1NC(=O)C(Cc2cccc3ccccc23)NCCOc2ccccc2CCCNC(=O)C(CO)NC1=O (stereo not drawn) [Compound 179] | 100 to 1000

Same assay, conditions: result in words; linear analogue of compound 1

Row | Structure (SMILES) | Binding activity
41 | CCC[C@H](NC(=O)[C@H](NC(=O)[C@@H](Cc1ccc(O)cc1)NCCOc1ccccc1/C=C/CNC(C)=O)C(C)C)C(N)=O [Compound 121] | lack of binding activity

Molecular target: T1, motilin receptor (Oryctolagus cuniculus, UniProt G1T803)
T1 construct: Duodenal segments were vertically suspended in organ chambers; from tissue; host or cells: rabbit duodenum segments
T1 sequence (G1T803 1-400): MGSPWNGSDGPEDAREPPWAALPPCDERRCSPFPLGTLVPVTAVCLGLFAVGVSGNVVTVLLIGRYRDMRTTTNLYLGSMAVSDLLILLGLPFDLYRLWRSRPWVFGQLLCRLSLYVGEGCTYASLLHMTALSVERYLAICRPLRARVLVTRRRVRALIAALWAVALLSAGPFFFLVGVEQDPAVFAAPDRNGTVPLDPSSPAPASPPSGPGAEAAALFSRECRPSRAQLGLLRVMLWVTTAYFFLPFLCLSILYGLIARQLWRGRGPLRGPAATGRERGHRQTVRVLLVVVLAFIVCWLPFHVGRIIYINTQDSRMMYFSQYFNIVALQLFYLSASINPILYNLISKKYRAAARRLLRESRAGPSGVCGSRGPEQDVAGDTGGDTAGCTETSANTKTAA
Experiment: Rabbit duodenum contractility assay (Method B4)
Conditions: not given
Method: Compounds of the present invention have shown significant antagonist activity in this assay.
Rabbit Duodenum Contractility Assay
Duodenal segments were vertically suspended in organ chambers of 10 mL filled with Krebs buffer and connected to an isotonic force transducer, with a preload of 1 g. After a stabilization period, the muscle strips were challenged with 10^−4 M acetylcholine and washed. This was repeated until a stable maximal contraction was obtained (2-3 times), with an interval of at least 20 minutes.
After a stable base line was reached, test compounds were added to the bath. After 15 min incubation, a dose response to motilin was recorded by adding logarithmically increasing concentrations of motilin to the bath (final concentration 10^−9 to 10^−6 M). A blank experiment (no test compound present) was also performed. At the end of the dose response curve, a supramaximal dose of acetylcholine (10^−4 M) was given and this response was used as a reference (100% contraction).
The results of experiments at different concentrations of test compound were combined and analyzed to derive the pA2 value from the Schild plot.

Row | Structure (SMILES) | Kb [nM]
42 | CCC[C@@H]1NC(=O)[C@@H](C(C)C)NC(=O)[C@@H](Cc2cccc(OC)c2)NCCOc2ccccc2CCCNC1=O [Compound 165] | 67.6
